Measurements published in PMC10584170, “Machine learning-based phenotypic imaging to characterise the targetable biology of Plasmodium falciparum male gametocytes for the development of transmission-blocking antimalarials” (PLOS Pathogens, 2023).

Tests used:
[1] = system: P. falciparum male gametocytes; assay: P. falciparum Dual Gamete Formation Assay (PfDGFA), male readout (exflagellation); format: cell-based, Plasmodium falciparum NF54; conditions: for Average inhibition male (%): average of replicates; for % inhibition male (individual replicates) R1: replicate R1; for % inhibition male (individual replicates) R3: replicate R3; for % inhibition male (individual replicates) R4: replicate R4; for Activity: hit = >50% inhibition in male or female readout in at least 3 replicates, 0 = no class assigned
Outline: (§1)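 First, day-14 P. falciparum NF54 gametocytes receive compound for 24 h at 37°C in 1% O2/3% CO2. Next, ookinete medium with Cy3 anti-Pfs25 triggers gametogenesis at 28°C and male exflagellation is imaged. Finally, after 24 h in the dark, Cy3-labelled females are imaged.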

[2] = system: P. falciparum female gametocytes; assay: P. falciparum Dual Gamete Formation Assay (PfDGFA), female readout (Pfs25-positive female gametes); format: cell-based, Plasmodium falciparum NF54; conditions: for Average inhibition female (%): average of replicates; for % inhibition female (individual replicates) R1: replicate R1; for % inhibition female (individual replicates) R3: replicate R3; for % inhibition female (individual replicates) R4: replicate R4
Outline: as §1

[3] = 2µM, 24h preincubation with gametocytes prior to induction of gametogenesis
[4] = 2µM, 24h preincubation, hits selected on >50% inhibition in the male readout across replicates
[5] = PfDGFA at 2µM, 24h preincubation
[6] = 2µM, 24h preincubation, hits selected on >50% inhibition in the female readout across replicates
[7] = PfDGFA at 2µM, 24h preincubation with gametocytes prior to induction of gametogenesis
[8] = PfDGFA at 2µM, 24h preincubation with gametocytes
[9] = number of replicates with >50% inhibition in the male readout, 2µM
[10] = number of replicates with >50% inhibition in the female readout, 2µM

SMILES	Average inhibition male (%) [1, 3]	% inhibition male (individual replicates) R1 [1, 3]	% inhibition male (individual replicates) R3 [1, 3]	% inhibition male (individual replicates) R4 [1, 3]	Average inhibition female (%) [2, 3]	% inhibition female (individual replicates) R1 [2, 3]	% inhibition female (individual replicates) R3 [2, 3]	% inhibition female (individual replicates) R4 [2, 3]	% inhibition male (individual replicates) R1 [1, 7]	% inhibition male (individual replicates) R3 [1, 7]	% inhibition male (individual replicates) R4 [1, 7]	Average inhibition male (%) [1, 5]	% inhibition female (individual replicates) R1 [2, 7]	% inhibition female (individual replicates) R3 [2, 7]	% inhibition female (individual replicates) R4 [2, 7]	Average inhibition female (%) [2, 5]	further results
COc1ccc2nc(-c3ccccc3)cc(NCCCNc3cc(-c4ccccc4)nc4ccc(OC)cc34)c2c1.Cl [TCMDC-137734]	9.4%	15.3%	-6.1%	18.2%	5.7%	14.1%	-18.5%	23.4%									HitlevelM [1, 4]: 0; Activity [1, 5]: 0; HitlevelF [2, 6]: 0
Cl.c1ccc2c(NCCCCCCCCCNc3ccnc4ccccc34)ccnc2c1 [TCMDC-137750]	54.0%	40.7%	8.2%	84.2%	39.1%	35.8%	19.4%	48.2%									HitlevelM ([1]; 2µM, 24h preincubation, number of replicates with >50% inhibition in the male readout): 2; HitlevelF ([2]; 2µM, 24h preincubation, number of replicates with >50% inhibition in the female readout): 1
COCCOc1nc(N)nc2ncc(Cc3cc(OC)ccc3OC)c(C)c12 [TCMDC-137754]									18.4%	27.4%	26.2%	25.9%	1.5%	-13.9%	2.0%	-4.6%	
OCc1ccc2nc3c(cc2c1)-c1cccc2cccc-3c12 [TCMDC-137756]									-3.7%	13.3%	12.3%	6.9%	4.5%	-23.9%	-12.7%	-11.0%	
COc1ccc(O)c(Cc2cnc3nc(N)[nH]c(=O)c3c2C)c1.CS(=O)(=O)O [TCMDC-137766]									13.3%	-7.3%	-9.1%	1.5%	3.3%	-13.8%	-13.6%	-2.6%	
COc1ccccc1N1CCN(CCCCNC(=O)c2ccc(NC(=O)c3ccc(OC(F)(F)F)cc3)cc2)CC1.Cl [TCMDC-137780]	-3.4%	-7.9%	-14.4%	10.6%	5.4%	10.5%	-10.0%	19.1%									HitlevelM [1, 4]: 0; Activity [1, 5]: 0; HitlevelF [2, 6]: 0
Cc1cc(N)nc2ccc(-c3ccc(CCN)cc3)cc12 [TCMDC-137786]																	Average inhibition male (%) [1, 8]: 75.8%; % inhibition male (individual replicates) R1 [1, 8]: 70.7%; % inhibition male (individual replicates) R4 [1, 8]: 86.5%; HitlevelM [1, 9]: 3; Average inhibition female (%) [2, 8]: 37.0%; % inhibition female (individual replicates) R1 [2, 8]: 36.7%; % inhibition female (individual replicates) R3 [2, 8]: 37.4%; % inhibition female (individual replicates) R4 [2, 8]: 36.1%; HitlevelF [2, 10]: 0
CCOc1ccc2ccccc2c1CNCCCCCCNCc1c(OCC)ccc2ccccc12.CS(=O)(=O)O [TCMDC-137791]																	Average inhibition male (%) [1, 8]: 87.1%; % inhibition male (individual replicates) R1 [1, 8]: 89.3%; % inhibition male (individual replicates) R3 [1, 8]: 68.9%; % inhibition male (individual replicates) R4 [1, 8]: 93.6%; HitlevelM [1, 9]: 4; Average inhibition female (%) [2, 8]: 47.4%; % inhibition female (individual replicates) R1 [2, 8]: 37.1%; % inhibition female (individual replicates) R3 [2, 8]: 17.2%; % inhibition female (individual replicates) R4 [2, 8]: 66.6%; HitlevelF [2, 10]: 2
